Laboratory results: patent USRE47141E1, “Methods of treating fibrosis, cancer and vascular injuries” (EWHA University—Industry Collaboration Foundation, priority 2010, dated 2018)

Key:
4T1 cells = assay: Cell growth study (SRB assay), 4T1; format: cell-based; conditions: 0.2% serum medium, four days
Experimental: (§1) Either 4T1 cells or MCF10A cells were seeded in 96-well plate at 5×10^3 cells per well. […] After incubation for four days, cell viability was determined by SRB assay.

MCF10A cells = assay: Cell growth study (SRB assay), MCF10A; format: cell-based; conditions: 0.2% serum medium, four days
Experimental: as §1

CHK1 = CHK1 (Homo sapiens (Human), UniProt O14757); assay: Kinase selectivity profiling; format: biochemical
Sequence of CHK1 (O14757 whole entry, species assumed): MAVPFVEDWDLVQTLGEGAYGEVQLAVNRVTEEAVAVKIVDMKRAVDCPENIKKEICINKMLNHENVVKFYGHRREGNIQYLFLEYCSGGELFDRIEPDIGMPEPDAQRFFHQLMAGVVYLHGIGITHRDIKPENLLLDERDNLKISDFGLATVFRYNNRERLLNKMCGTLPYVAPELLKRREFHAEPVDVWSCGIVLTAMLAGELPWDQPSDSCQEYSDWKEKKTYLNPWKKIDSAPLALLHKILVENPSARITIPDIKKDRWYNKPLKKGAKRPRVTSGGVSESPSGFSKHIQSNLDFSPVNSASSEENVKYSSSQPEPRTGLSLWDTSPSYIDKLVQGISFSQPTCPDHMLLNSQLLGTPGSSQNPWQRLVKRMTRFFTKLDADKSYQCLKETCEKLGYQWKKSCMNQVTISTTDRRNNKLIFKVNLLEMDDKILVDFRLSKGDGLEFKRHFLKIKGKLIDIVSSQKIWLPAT
Experimental: (§2) Kinase assays were performed in 96-well FlashPlates™ from Perkin Elmer in a […]. […] The reaction cocktail contained 70 mM HEPES-NaOH, pH 7.5, 3 mM MnCl2, 3 μM Na3VO4, 1.2 mM DTT, 1 μM [γ-^33P]-ATP (approximately 6×10^5 cpm per well), protein kinase (variable amounts), and substrate (variable amounts). The reaction cocktails were incubated at 30° C. for 60 min. The reaction was stopped with 50 μL of 2% (v/v) H3PO4, and plates were aspirated and washed two times with 200 μL 0.9% (w/v) NaCl. ALL assays were performed with a BeckmanCoulter Biomek 2000/SL robotic system. Incorporation of ^33Pi (counting of “cpm”) was determined with a microplate scintillation counter.

ALK3 = ALK3 (Homo sapiens (Human), UniProt P36894); assay: Kinase selectivity profiling; format: biochemical
Sequence of ALK3 (P36894 24-532, species assumed): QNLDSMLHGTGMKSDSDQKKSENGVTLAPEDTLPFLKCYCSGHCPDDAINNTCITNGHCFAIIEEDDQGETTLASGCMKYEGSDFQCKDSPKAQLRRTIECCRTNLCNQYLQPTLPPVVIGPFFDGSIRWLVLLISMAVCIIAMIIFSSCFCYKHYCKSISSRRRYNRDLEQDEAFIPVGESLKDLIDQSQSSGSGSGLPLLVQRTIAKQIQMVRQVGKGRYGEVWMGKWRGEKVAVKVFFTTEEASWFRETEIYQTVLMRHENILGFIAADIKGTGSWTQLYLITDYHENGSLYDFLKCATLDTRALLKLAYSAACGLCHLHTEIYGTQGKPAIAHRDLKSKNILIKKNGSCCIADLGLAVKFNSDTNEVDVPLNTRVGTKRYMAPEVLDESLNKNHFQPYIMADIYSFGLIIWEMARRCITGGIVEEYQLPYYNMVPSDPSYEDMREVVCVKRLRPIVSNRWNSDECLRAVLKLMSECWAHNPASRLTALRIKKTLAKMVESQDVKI
Experimental: as §2

ROCK1 = ROCK1 (Homo sapiens (Human), UniProt Q13464); assay: Kinase selectivity profiling; format: biochemical
Sequence of ROCK1 (Q13464 whole entry, species assumed): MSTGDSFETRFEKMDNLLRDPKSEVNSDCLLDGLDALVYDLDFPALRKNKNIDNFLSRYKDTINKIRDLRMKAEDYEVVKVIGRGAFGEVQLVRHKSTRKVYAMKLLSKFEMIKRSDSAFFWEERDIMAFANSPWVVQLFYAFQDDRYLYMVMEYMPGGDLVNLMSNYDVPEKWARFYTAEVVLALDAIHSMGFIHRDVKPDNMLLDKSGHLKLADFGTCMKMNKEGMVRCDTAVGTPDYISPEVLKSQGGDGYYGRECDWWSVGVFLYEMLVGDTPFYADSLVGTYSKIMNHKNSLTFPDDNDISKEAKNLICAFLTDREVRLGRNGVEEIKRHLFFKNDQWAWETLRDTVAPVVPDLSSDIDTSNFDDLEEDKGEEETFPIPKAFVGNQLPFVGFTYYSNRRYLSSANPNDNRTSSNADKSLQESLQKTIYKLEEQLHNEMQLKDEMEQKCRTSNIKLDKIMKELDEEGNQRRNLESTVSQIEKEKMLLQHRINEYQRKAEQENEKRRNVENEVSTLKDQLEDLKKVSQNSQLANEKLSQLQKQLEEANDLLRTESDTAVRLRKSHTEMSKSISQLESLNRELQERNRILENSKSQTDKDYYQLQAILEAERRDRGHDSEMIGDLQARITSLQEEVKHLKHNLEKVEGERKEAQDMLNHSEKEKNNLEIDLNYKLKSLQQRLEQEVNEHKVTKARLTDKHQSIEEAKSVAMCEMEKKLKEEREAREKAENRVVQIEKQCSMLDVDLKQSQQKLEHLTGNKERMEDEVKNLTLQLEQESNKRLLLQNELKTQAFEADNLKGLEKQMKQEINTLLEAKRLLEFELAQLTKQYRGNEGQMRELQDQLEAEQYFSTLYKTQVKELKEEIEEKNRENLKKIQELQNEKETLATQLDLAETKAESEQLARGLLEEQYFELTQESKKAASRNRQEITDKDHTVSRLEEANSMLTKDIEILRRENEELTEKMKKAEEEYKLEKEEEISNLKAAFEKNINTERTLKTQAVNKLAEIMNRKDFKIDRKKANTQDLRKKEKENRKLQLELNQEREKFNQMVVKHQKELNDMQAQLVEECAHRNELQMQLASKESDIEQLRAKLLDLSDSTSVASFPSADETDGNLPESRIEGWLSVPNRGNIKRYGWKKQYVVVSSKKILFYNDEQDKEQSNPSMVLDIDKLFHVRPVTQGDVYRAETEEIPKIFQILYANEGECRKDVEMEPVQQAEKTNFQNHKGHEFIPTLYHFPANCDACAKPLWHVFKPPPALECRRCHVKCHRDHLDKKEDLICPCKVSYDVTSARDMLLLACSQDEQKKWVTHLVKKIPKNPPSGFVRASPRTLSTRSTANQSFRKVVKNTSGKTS
Experimental: as §2

VEGF-R3 = VEGF-R3 (Homo sapiens (Human), UniProt P35916); assay: Kinase selectivity profiling; format: biochemical
Experimental: as §2

STK23 = STK23 (Homo sapiens (Human), UniProt Q9UPE1); assay: Kinase selectivity profiling; format: biochemical
Sequence of STK23 (Q9UPE1 whole entry, species assumed): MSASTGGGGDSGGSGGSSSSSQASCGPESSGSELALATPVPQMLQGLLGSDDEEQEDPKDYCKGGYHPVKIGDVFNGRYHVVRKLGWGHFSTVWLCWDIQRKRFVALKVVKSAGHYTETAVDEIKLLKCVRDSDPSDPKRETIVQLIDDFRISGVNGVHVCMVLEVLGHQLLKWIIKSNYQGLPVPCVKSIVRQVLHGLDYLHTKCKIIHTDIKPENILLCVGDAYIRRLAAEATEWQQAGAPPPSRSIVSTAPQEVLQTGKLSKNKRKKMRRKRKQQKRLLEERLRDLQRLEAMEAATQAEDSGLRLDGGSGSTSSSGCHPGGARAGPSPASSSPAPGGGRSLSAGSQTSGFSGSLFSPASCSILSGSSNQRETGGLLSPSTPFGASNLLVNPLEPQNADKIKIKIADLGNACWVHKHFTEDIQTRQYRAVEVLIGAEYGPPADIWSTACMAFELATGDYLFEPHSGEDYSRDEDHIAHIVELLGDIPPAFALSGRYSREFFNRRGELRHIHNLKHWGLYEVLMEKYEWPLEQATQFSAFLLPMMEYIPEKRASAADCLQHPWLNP
Experimental: as §2

GSK3α = GSK3α (Homo sapiens (Human), UniProt P49840); assay: Kinase selectivity profiling; format: biochemical
Sequence of GSK3α (P49840 whole entry, species assumed): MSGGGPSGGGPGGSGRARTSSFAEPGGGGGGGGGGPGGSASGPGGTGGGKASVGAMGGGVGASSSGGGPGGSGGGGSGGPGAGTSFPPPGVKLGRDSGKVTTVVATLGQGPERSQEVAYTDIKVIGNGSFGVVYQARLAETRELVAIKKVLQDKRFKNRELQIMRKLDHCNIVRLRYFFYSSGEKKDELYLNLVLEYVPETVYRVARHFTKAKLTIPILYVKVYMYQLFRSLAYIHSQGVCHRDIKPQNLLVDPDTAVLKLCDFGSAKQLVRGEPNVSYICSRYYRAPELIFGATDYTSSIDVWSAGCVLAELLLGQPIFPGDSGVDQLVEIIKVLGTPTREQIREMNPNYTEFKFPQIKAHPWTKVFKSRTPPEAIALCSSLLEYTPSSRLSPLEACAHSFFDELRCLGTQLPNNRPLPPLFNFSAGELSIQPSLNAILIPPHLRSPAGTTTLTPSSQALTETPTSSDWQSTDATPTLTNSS
Experimental: as §2

MET wt = MET wt (Homo sapiens (Human), UniProt P08581); assay: Kinase selectivity profiling; format: biochemical
Sequence of MET wt (P08581 25-1390): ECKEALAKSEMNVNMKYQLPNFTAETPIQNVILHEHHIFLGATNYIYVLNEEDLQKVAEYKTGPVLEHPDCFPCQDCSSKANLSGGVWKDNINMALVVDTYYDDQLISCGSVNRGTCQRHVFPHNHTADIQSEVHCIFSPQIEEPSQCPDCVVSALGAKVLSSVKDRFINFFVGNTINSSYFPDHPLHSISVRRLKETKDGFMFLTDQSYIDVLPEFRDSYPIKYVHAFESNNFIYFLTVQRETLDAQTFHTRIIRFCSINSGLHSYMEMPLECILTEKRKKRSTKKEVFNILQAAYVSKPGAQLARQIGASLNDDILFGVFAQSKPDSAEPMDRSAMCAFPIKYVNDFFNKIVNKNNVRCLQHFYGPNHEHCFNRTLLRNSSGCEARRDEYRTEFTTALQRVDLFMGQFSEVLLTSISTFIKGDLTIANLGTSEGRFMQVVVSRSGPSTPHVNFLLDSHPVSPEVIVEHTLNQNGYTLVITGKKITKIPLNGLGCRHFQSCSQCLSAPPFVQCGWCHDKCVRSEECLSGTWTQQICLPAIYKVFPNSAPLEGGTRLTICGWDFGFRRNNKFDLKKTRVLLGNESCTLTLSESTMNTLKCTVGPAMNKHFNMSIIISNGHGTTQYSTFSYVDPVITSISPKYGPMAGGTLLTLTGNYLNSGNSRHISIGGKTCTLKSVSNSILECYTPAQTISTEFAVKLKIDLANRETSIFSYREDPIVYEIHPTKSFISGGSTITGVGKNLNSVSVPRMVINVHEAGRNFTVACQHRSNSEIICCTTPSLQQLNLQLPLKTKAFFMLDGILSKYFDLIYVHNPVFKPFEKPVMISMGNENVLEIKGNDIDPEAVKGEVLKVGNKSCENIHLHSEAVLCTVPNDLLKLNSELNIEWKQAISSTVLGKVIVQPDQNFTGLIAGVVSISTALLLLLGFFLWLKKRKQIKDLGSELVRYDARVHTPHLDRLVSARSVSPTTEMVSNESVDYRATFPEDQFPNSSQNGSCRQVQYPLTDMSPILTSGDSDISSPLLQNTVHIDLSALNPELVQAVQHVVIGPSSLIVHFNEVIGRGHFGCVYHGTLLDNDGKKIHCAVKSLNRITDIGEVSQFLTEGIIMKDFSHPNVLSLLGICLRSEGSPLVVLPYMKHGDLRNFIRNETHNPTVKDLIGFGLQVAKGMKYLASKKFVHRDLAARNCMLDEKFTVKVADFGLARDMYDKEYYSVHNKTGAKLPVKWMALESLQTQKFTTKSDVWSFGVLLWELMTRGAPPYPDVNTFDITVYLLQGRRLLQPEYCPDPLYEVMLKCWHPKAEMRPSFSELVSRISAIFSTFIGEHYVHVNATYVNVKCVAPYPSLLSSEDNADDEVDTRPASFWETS
Experimental: as §2

[1] = test system: bleomycin (BLM)-treated mice; assay: Anti-fibrotic effect on bleomycin-induced lung fibrosis model; format: in vivo
[2] = read-out: % inhibition at 1 μM, 1 μM
[3] = read-out: % inhibition at 10 μM, 10 μM
[4] = 5, 10, or 20 mg/kg orally five times per week for two weeks starting from day 7, Western blot

Cc1cccc(-c2[nH]c(CNc3ccccc3F)nc2-c2ccc3ncnn3c2)n1 [Example 2, N-((4-([1,2,4]triazolo[1,5-a]pyridin-6-yl)-5-(6-methylpyridin-2-yl)-1H-imidazol-2-yl)methyl)-2-fluoroaniline] was tested, and the 4T1 cell growth (4T1 cells) was “no effect”, the MCF10A cell growth (MCF10A cells) was “slightly increased” and the inhibition at 1 µM (CHK1; [2]) was -2%. It also gave an inhibition at 10 µM (CHK1; [3]) of 5%, an inhibition at 1 µM (ALK3; [2]) of -6% and an inhibition at 10 µM (ALK3; [3]) of 27%. For the same compound, the inhibition at 1 µM (ROCK1; [2]) was 3%, the inhibition at 10 µM (ROCK1; [3]) was 9% and the IC50 (VEGF-R3) was 257 nM. It also gave an inhibition at 1 µM (STK23; [2]) of -4%, an inhibition at 10 µM (STK23; [3]) of -1% and an inhibition at 1 µM (GSK3α; [2]) of 10%. For the same compound, the inhibition at 10 µM (GSK3α; [3]) was 15%, the inhibition at 1 µM (MET wt; [2]) was -5% and the inhibition at 10 µM (MET wt; [3]) was 12%. For the same compound, the “fibronectin in BLM-induced fibrotic lung” value [1, 4] was “suppressed”, the “α-SMA in BLM-induced fibrotic lung” value [1, 4] was “suppressed” and the BLM-induced histological changes ([1]; all dose levels tested (5, 10, 20 mg/kg orally), lung, H&E staining) was “greatly reduced”.
